Data set [1] relates to MSP-1 neurons. Put plainly: P-MLKL immunostaining (necroptosis) of MSP-1 neurons treated with culture supernatant of TNF-α-treated astrocytes. The data set is classed as cell-based, mouse. On the procedure: (§1) To obtain differentiated astrocytes, the above MSP-1 cells were harvested and cultured overnight in the MSP-1 proliferation medium on new dishes. The next day, for differentiation into astrocytes, the cells were cultured in serum-free DMEM/F12 medium containing N-2 supplement (R&D Systems), leukemia inhibitory factor (LIF, 10 ng/ml, Fujifilm Wako Pure Chemical Industries), and ciliary neurotrophic factor (CNTF, 10 ng/ml, Fujifilm Wako Pure Chemical Industries). For differentiation into neurons, the cells were cultured in serum-free DMEM/F12 medium containing only N-2 supplement. These media are referred to as MSP-1 differentiation media. Each medium was replaced with fresh medium every 2 days. For differentiation into astrocytes, in particular, on […], the cells were exposed to tumor necrosis factor-α (TNF-α, 100 ng/ml, Fujifilm Wako Pure Chemical Industries) for 24 hours. In the anserine treatment group, the cells were pretreated with L-anserine nitrate (Fujifilm Wako Pure Chemical Industries) for 2 hours prior to the exposure to TNF-α.
The harvested MSP-1 cells were cultured in the MSP-1 differentiation medium on poly-L-lysine/fibronectin-coated chamber glass (4-well, Watson) and differentiated into astrocytes. After the TNF-α treatment, the cells were fixed with 4% PFA for 10 minutes and washed with TBS for 10 minutes. Subsequently, the cells were blocked with 5% BSA diluted in 0.05% TBS-X at room temperature for 60 minutes, then incubated overnight at 4°C in a blocking solution containing primary antibodies. The primary antibodies used in this study were anti-GFAP (mouse, 1:1000, Sigma), anti-NeuN (mouse, 1:1000, Millipore), anti-NF-κB p65 (rabbit, 1:500, CST), and anti-P-MLKL (rabbit, 1:2000, Abcam). The cells were then washed three times with TBS for 5 minutes each, and incubated with secondary antibodies at room temperature for 2 hours. The secondary antibodies used in this study were anti-mouse IgG donkey Alexa 488 (1:1000, Molecular Probes) and anti-rabbit IgG donkey Alexa 568 (1:1000, Molecular Probes). After washing with TBS for 5 minutes, the sections were incubated with DAPI (1:10,000, Sigma) in TBS for 5 minutes, and then washed with TBS 2 times for 5 minutes each. The cells were visualized using a confocal microscope (FV3000-L4EN-TN21, Olympus).
(§2) To obtain differentiated astrocytes, the MSP-1 cells were harvested and cultured overnight in the MSP-1 proliferation medium on new dishes. The next day, the medium was replaced with serum-free DMEM/F12 medium containing N-2 supplement (R&D Systems), leukemia inhibitory factor (LIF, 10 ng/ml, Wako), and ciliary neurotrophic factor (CNTF, 10 ng/ml, Wako). This medium was referred to as astrocyte differentiation medium. The culture medium was replaced with fresh medium every 2 or 3 days. […]

Data set [2] relates to MSP-1 neurons. In words: AT8 (tau phosphorylation) immunostaining of MSP-1 neurons treated with astrocyte culture medium. The data set is classed as cell-based, mouse. The method, then:
as §2, with “days. On day 5, the cells were exposed to tumor necrosis factor-α (TNF-α, 100 ng/ml, Wako) for 24 hours. For anserine treatment group, the cells were pretreated with L-anserine (Toronto Research Chemicals) for 2 hours prior to the exposure to TNF-α.” for “days.”
(§3) The cells were cultured on poly-L-lysine/fibronectin-coated chamber glass (4-well or 8-well, Watson) containing the respective MSP-1 differentiation media to induce differentiation into astrocytes or neurons. […] The images were analyzed and quantified using ImageJ.
(§4) Microscopic images were analyzed using the ImageJ software. For AT8, P-RIPK1, and P-MLKL staining, staining intensity was calculated. […] For P-P65 staining, only the staining intensity in the nucleus was calculated, and the data are presented as relative intensity ± S.E.M. for each group. At least 100 cells for each group were analyzed from at least 10 random images.

Data set [3] concerns MSP-1 cells differentiated into astrocytes. Put plainly: RNA sequencing (DEG, GO/KEGG, GSEA) of TNF-α-treated MSP-1 astrocytes. Format: cell-based, mouse. The method, then: as §1
The MSP-1 cells differentiated into astrocytes were harvested by trypsin treatment, and total RNA was isolated using the RNeasy Mini Kit (Qiagen). Samples (10 ng input) were pretreated using the SMART-seq Stranded Kit (Takara, Japan). Sequencing was performed using Illumina NovaSeq 6000 (Illumina, USA).
Gene expression levels were assessed by using transcripts per million (TPM) data, and differentially expressed genes (DEGs) were identified using the DESeq2 package in the R environment. Genes with p-values less than 0.05 were considered DEGs. […] Gene set enrichment analysis (GSEA) was performed based on the TPM data.
On day 5, TNF-α (100 ng/ml) was added to the MSP-1 cells differentiated into astrocytes, and the cells were treated for 24 hours. In the TNF-α + anserine group, 10 µM anserine was added to the culture medium 2 hours prior to the TNF-α treatment. These cells were harvested, and RNA sequencing (RNA-seq) analysis was performed to examine the expressed genes. […] Necroptosis-promoting factors such as C3, Ccl2, Ccl7, and Cxcl1 increased after the TNF-α treatment and decreased in the TNF-α + anserine group.
(§5) To obtain differentiated astrocytes, the MSP-1 cells were harvested and cultured overnight in the MSP-1 proliferation medium on new dishes. The next day, the medium was replaced with serum-free DMEM/F12 medium containing N-2 supplement (R&D Systems), leukemia inhibitory factor (LIF, 10 ng/ml, Wako), and ciliary neurotrophic factor (CNTF, 10 ng/ml, Wako). This medium was referred to as astrocyte differentiation medium. The culture medium was replaced with fresh medium every 2 or 3 days. On day 5, the cells were exposed to tumor necrosis factor-α (TNF-α, 100 ng/ml, Wako) for 24 hours. For anserine treatment group, the cells were pretreated with L-anserine (Toronto Research Chemicals) for 2 hours prior to the exposure to TNF-α. To obtain differentiated neurons, the culture medium for MSP-1 cells was replaced with the serum-free DMEM/F12 medium containing N-2 supplement. This medium was referred to as neuron differentiation medium. The culture medium was replaced with fresh medium every 2 days. On day 5, the cells were treated for 24 hours with the culture supernatant of the astrocytes induced from MSP-1 cells. Nec-1 and the C3aR antagonist (SB290157) were purchased from Selleck.
Total RNA was isolated from isolated astrocytes and astrocytes differentiated from MSP-1 cells using RNeasy Mini Kit (Qiagen). RNA samples in an amount of 1 ng (isolated astrocytes) or 10 ng (cultured astrocytes) were pretreated using the SMART-seq Stranded Kit (Takara Bio, Japan). Sequencing was performed using Illumina NovaSeq 6000 (Illumina, USA). Gene expression levels were evaluated using transcripts per million (TPM) data, and differentially expressed genes (DEGs) were identified using the DESeq2 package in the R environment. […]

A short description of data set [4]: Stability of anserine (temperature, storage in solution). The data set is classed as physicochemical.
Data set [5] has as its system MSP-1 neurons. In words: P-RIPK1 immunostaining of MSP-1 neurons treated with astrocyte culture medium. Particulars: MSP-1 neurons treated with anserine CM. The data set is classed as cell-based, mouse. The method, then: (§6) To obtain differentiated astrocytes, the MSP-1 cells were harvested and cultured overnight in the MSP-1 proliferation medium on new dishes. The next day, the medium was replaced with serum-free DMEM/F12 medium containing N-2 supplement (R&D Systems), leukemia inhibitory factor (LIF, 10 ng/ml, Wako), and ciliary neurotrophic factor (CNTF, 10 ng/ml, Wako). This medium was referred to as astrocyte differentiation medium. The culture medium was replaced with fresh medium every 2 or 3 days. On day 5, the cells were exposed to tumor necrosis factor-α (TNF-α, 100 ng/ml, Wako) for 24 hours. For anserine treatment group, the cells were pretreated with L-anserine (Toronto Research Chemicals) for 2 hours prior to the exposure to TNF-α. […]
as §3, §4

The subject of the next data set is phospho-NF-κB. Put plainly: Immunostaining of phospho-NF-κB (P-P65) in TNF-α-treated MSP-1 astrocytes. Format: cell-based, mouse. On the procedure: The harvested MSP-1 cells were cultured in the MSP-1 differentiation medium on poly-L-lysine/fibronectin-coated chamber glass (4-well, Watson) and differentiated into astrocytes. After the TNF-α treatment, the cells were fixed with 4% PFA for 10 minutes and washed with TBS for 10 minutes. Subsequently, the cells were blocked with 5% BSA diluted in 0.05% TBS-X at room temperature for 60 minutes, then incubated overnight at 4°C in a blocking solution containing primary antibodies. The primary antibodies used in this study were anti-GFAP (mouse, 1:1000, Sigma), anti-NeuN (mouse, 1:1000, Millipore), anti-NF-κB p65 (rabbit, 1:500, CST), and anti-P-MLKL (rabbit, 1:2000, Abcam). […]
as §3, §4

Data set [6] has as its system phosphorylated IKK complex. Put plainly: Phosphorylated IKK immunostaining in TNF-α-treated MSP-1 astrocytes. Format: cell-based, mouse. Particulars: MSP-1 astrocytes treated with TNF-α, addition of anserine; Fig. 6. On the procedure:
as §5, with “Nec-1 and the C3aR antagonist (SB290157) were purchased from Selleck.” left out
as §3

The test system of data set [7] is C3, Ccl2, Cxcl1, and iNOS. Put plainly: Real-time PCR of inflammatory factor genes in TNF-α-treated MSP-1 astrocytes. The data set is classed as cell-based, mouse. The method, then:
as §6, with “TNF-α. To obtain differentiated neurons, the culture medium for MSP-1 cells was replaced with the serum-free DMEM/F12 medium containing N-2 supplement. This medium was referred to as neuron differentiation medium. The culture medium was replaced with fresh medium every 2 days.” for “TNF-α.”
Reverse transcription reactions for cDNA synthesis were performed on the isolated RNA samples (500 ng) using SuperScript™ III Reverse Transcriptase (Thermo Fisher) according to the manufacturer's instructions. […] Analysis was performed by the 2-ΔΔ-Ct method, and the results are expressed as fold changes. […]

Data set [8] relates to male albino rats with experimentally induced sepsis. Particulars: carnosine 25 mg/kg and 50 mg/kg for 30 days; cited from earlier work.
Where [9] appears, read: 10 µM anserine 2 hours prior to TNF-α 100 ng/ml, 24 hours, versus TNF-α group.
Setting [10] is: 10 µM anserine added 2 hours prior to TNF-α (100 ng/ml, 24 hours), RNA-seq.
Setting [11] is: Example 2, MSP-1 astrocytes pretreated with anserine before TNF-α, Fig. 5A.

Results on 4 compounds are retold here after patent publication EP4810054A1, “NECROPTOSIS CONTROL AGENT” (The University of Tokyo, priority 2023, dated 2025).

The structures appear in SMILES notation.

For `N=C(N)NCCCC(NC(=O)COCC(c1ccccc1)c1ccccc1)C(=O)O` (centres unmarked) [C3aR antagonist, reference compound], in the data set on MSP-1 neurons [1] (MSP-1 neurons treated with TNF CM plus C3aRA (10 µM), Fig. 4), the p-MLKL intensity entry is given as “decreased significantly”.

For the compound `CN1C(=O)C(Cc2c[nH]c3ccccc23)NC1=S` (centres unmarked) [Nec-1, necrostatin-1, reference compound], the p-MLKL intensity result in the data set with MSP-1 neurons [1] (MSP-1 neurons treated with TNF CM plus Nec 1 (30 µM), Fig. 4) was “decreased significantly to the same level”.

Regarding `Cn1cncc1C[C@H](NC(=O)CCN)C(=O)O` [anserine, (2S)-2-[(3-amino-1-oxopropyl)amino]-3-(3-methyl-4-imidazolyl)propanoic acid], the “intensity of AT8” value in the data set with MSP-1 neurons [2] (MSP-1 neurons treated with anserine CM) is “significant decrease”. For the same compound, the “tau-phosphorylation (p-tau expression, AT-8 staining)” value in the data set on MSP-1 neurons [2] (MSP-1 neurons treated with culture medium from TNF-α + anserine group (anserine CM), Fig. 4) is given as “did not exhibit such p-tau expression”. Moreover, in [3] (setting [9]), the “Mfge8 (milk fat globule-EGF factor 8) expression (RNA-seq)” value is on record as “increased”; the “Necroptosis-promoting factors such as C3, Ccl2, Ccl7, and Cxcl1 (expression, RNA-seq)” value was “decreased”. In data set [3] (setting [10]), the “DEGs down-regulated, TNF-α + anserine vs TNF-α treatment group” value was found to be 169; the “DEGs up-regulated, TNF-α + anserine vs TNF-α treatment group” value is listed as 159; the “differentially expressed genes (DEGs) in the TNF-α + anserine treatment group in comparison with the TNF-α treatment group” value stood at 328. Moreover, in data set [3] (setting [11]), the complement activation result is recorded as “reduced”. Further, in [3] (TNF-α + anserine group), the “expression of gene groups involved in necroptosis induction (chemokine signaling pathway, response to cytokine, immune response, TNF signaling-related genes), GO and KEGG analyses” value was “significant decrease in expression”. In addition, the “expressions of inflammation-related genes, chemokine pathway, and complement activation pathway (GSEA)” value in data set [3] (TNF-α + anserine group versus TNF-α group) was “decreased”. The “stable storage in solution (duration)” value in data set [4] (in solution) is “at least two years and nine months”. The “stability at room temperature and under conditions of 180°C or lower” value in data set [4] (room temperature, 180°C or lower) was “sufficiently stable”. For the same compound, in the data set on MSP-1 neurons [5], the “intensity of P-RIPK1” value is “significant decrease”. Besides, in the data set with phospho-NF-κB (setting [11]), the NF-κB activity entry is reported as “reduced”. Moreover, in the data set with phospho-NF-κB (anserine treatment, TNF-α-induced MSP-1 astrocytes, Figs. 2B and 2C), the “expression of phospho-NF-κB” value is listed as “reduced”. Moreover, in data set [6], the “expression of the phosphorylated IKK complex” value is “reduced”. Besides, the “intensity of P-MLKL” value in the data set on MSP-1 neurons [1] (MSP-1 neurons treated with anserine CM, Fig. 4) was “significant decrease”. In the data set with MSP-1 neurons [1] (culture supernatant containing 10 mM anserine in addition to TNF-α, compared with sham group, Fig. 3), the “necroptosis of MSP-1 neurons (expression of P-MLKL in necrosomes)” value was “suppressed to a degree comparable to that observed with untreated culture supernatant (sham group)”. Besides, the “expressions of inflammatory factors such as C3” value in data set [7] (setting [11]) is listed as “decreased”. Also, the “expressions of C3, Ccl2, Cxcl1, and iNOS (real-time PCR)” value in data set [7] (anserine treatment group versus TNF-α treatment group, Fig. 2D) is reported as “significantly decreased”.

Take `NCCC(=O)N[C@@H](Cc1cnc[nH]1)C(=O)O` [carnosine]: in data set [8], the “IL-β, TNF-α, and MIF” value is “reduced”; the “expression of IκBα” value is on record as “increased”; the “increased expression of p65 and p-IKKα/β (Ser 180/Ser 181)” value is reported as “suppressed”; the “lipid peroxidation and other antioxidant enzymes” value is “significantly normalized”.
